The results in this text go back to US11473094B2, “Methods for improving competency of plant cells” (Monsanto Technology LLC, priority 2010, dated 2022).

The subject of the experiment is Soybean cv. A3555 dry embryos. In words: Transformation frequency, PEG compared to other osmotic compounds. Type of experiment: cell-based. The following applies: 1 hour contact, AB30/OriRi. An excerpt: It also compares TF enhancement of treatments with various PEG species. Soybean cv. […] dry embryos were excised according to the method described in U.S. Patent Application Publication No. 2008/0280361 and contacted for an hour with various amounts of PEG-4000, PEG-6000, PEG-8000, Mannitol, Sorbitol, or Glycerol dissolved in SDW. The embryos were then rinsed 5-6× with SDW and transformed according to the methods described in U.S. Patent Application Publication No. 2009/0138985. The embryos were transformed with a 2T transformation vector having an OriRi replication of origin and contained in AB30 strain of Agrobacterium. The embryos were regenerated on spectinomycin selection medium.

`OCC(O)CO` [glycerol, Glycerol]: under “10% in SDW”, the “# R0 Plants” value turned out to be 4 and the TF was 2.30%. Besides, for the setting “20% in SDW”, the “# R0 Plants” value is on record as 0 and the TF came to 0.00%.

`OC[C@@H](O)[C@@H](O)[C@H](O)[C@H](O)CO` [mannitol, Mannitol]: under “10% in SDW”, the “# R0 Plants” value is given as 5 and the TF was determined as 0.50%.

As for `OC[C@@H](O)[C@@H](O)[C@H](O)[C@@H](O)CO` [sorbitol, Sorbitol], where the note is “10% in SDW”, the “# R0 Plants” value stood at 4 and the TF stood at 0.40%. Moreover, where the note is “20% in SDW”, the “# R0 Plants” value stood at 3 and the TF is 0.30%.
